T/C data for 21 molecules are collected here from PubChem BioAssay AID330 (DTP/NCI, 2004).

Where “and” joins values, the source holds several entries; their conditions need not be identical. Equal values may be shown once. Toxic doses and inconclusive results are not listed.

The test system of this assay is P388 leukemia ip, CD2F1 mice, survival T/C. The assay is described as follows: NCI In Vivo Anticancer Drug Screen. Data for tumor model P388 Leukemia (intraperitoneal) in CD2F1 (CDF1) mice. As to conditions: endpoint: median survival time, higher = longer survival. Put shortly:
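Mice carrying the transplanted tumor received test compound or vehicle. Survival was recorded in each group, and the value is the treated-group measurement divided by that of the vehicle-treated control group.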

The mark [1] stands for this setting: dose: 50.0 mg/kg/injection, schedule: Q01DX005 (ip), vehicle: Klucel (hydroxypropylcellulose) (HPC).
The mark [2] stands for this setting: dose: 50.0 mg/kg/injection, schedule: Q01DX005 (ip), vehicle: saline with Tween-80.
The mark [3] stands for this setting: dose: 100.0 mg/kg/injection, schedule: Q01DX005 (ip), vehicle: saline with Tween-80.
The mark [4] stands for this setting: dose: 200.0 mg/kg/injection, schedule: Q01DX005 (ip), vehicle: saline with Tween-80.
The mark [5] stands for this setting: dose: 6.25 mg/kg/injection, schedule: Q01DX005 (ip), vehicle: saline.
Setting [6] is: dose: 10.0 mg/kg/injection, schedule: Q01DX005 (ip), vehicle: saline.
Where [7] appears, read: dose: 25.0 mg/kg/injection, schedule: Q01DX005 (ip), vehicle: saline.
The mark [8] stands for this setting: dose: 50.0 mg/kg/injection, schedule: Q01DX009 (ip), vehicle: saline with Tween-80.
Setting [9] is: dose: 100.0 mg/kg/injection, schedule: Q01DX009 (ip), vehicle: saline with Tween-80.
Setting [10] is: dose: 60.0 mg/kg/injection, schedule: Q01DX005 (ip), vehicle: saline with Tween-80.
Setting [11] is: dose: 120.0 mg/kg/injection, schedule: Q01DX005 (ip), vehicle: saline with Tween-80.
The mark [12] stands for this setting: dose: 240.0 mg/kg/injection, schedule: Q01DX005 (ip), vehicle: saline with Tween-80.
The mark [13] stands for this setting: dose: 100.0 mg/kg/injection, schedule: Q01DX001 (ip), vehicle: Klucel (hydroxypropylcellulose) (HPC).
The mark [14] stands for this setting: dose: 200.0 mg/kg/injection, schedule: Q01DX001 (ip), vehicle: Klucel (hydroxypropylcellulose) (HPC).
The mark [15] stands for this setting: dose: 400.0 mg/kg/injection, schedule: Q01DX001 (ip), vehicle: Klucel (hydroxypropylcellulose) (HPC).
Where [16] appears, read: dose: 100.0 mg/kg/injection, schedule: Q01DX001 (ip), vehicle: saline with Tween-80.

Regarding `O=NN(c1cccc(C(F)(F)F)c1)c1ccccn1`, the T/C is 100 % of control (dose: 25.0 mg/kg/injection, schedule: Q01DX009 (ip), vehicle: other); 108 % of control (dose: 50.0 mg/kg/injection, schedule: Q01DX009 (ip), vehicle: other); 106 % of control (dose: 100.0 mg/kg/injection, schedule: Q01DX009 (ip), vehicle: other); 104 % of control (dose: 200.0 mg/kg/injection, schedule: Q01DX009 (ip), vehicle: other); 108 % of control (dose: 400.0 mg/kg/injection, schedule: Q01DX009 (ip), vehicle: other).
Consider `CC(=O)Nc1ccc(Cl)cc1C(O)c1ccccc1` (configuration not stated), for which the T/C was 89 % of control (dose: 12.5 mg/kg/injection, schedule: Q01DX005 (ip), vehicle: Klucel (hydroxypropylcellulose) (HPC)); 91 % of control (dose: 25.0 mg/kg/injection, schedule: Q01DX005 (ip), vehicle: Klucel (hydroxypropylcellulose) (HPC)); 98 % of control and 99 % of control under setting [1].
For `CCOC(=O)C(Cc1ccccc1)C1(C)SCCN1C(=O)OCC` (configuration not stated), the T/C (dose: 25.0 mg/kg/injection, schedule: Q01DX005 (ip), vehicle: saline with Tween-80) is 101 % of control; the T/C under setting [2] was 105 % of control; the T/C under setting [3] was 100 % of control; the T/C under setting [4] was 103 % of control.
Regarding `Cc1[nH]n(-c2ccc(Cl)cc2)c(=O)c1N=Nc1cccc(C(F)(F)F)c1`, the T/C is 88 % of control (dose: 50.0 mg/kg/injection, schedule: Q01DX009 (ip), vehicle: saline); 91 % of control (dose: 100.0 mg/kg/injection, schedule: Q01DX009 (ip), vehicle: saline); 93 % of control (dose: 200.0 mg/kg/injection, schedule: Q01DX009 (ip), vehicle: saline).
For the molecule `CCC1([N+](=O)[O-])CN(C)CC2CCCCN2C1` (configuration not stated), the T/C was 95 % of control (dose: 25.0 mg/kg/injection, schedule: Q04DX002 (ip), vehicle: water); 101 % of control (dose: 50.0 mg/kg/injection, schedule: Q04DX002 (ip), vehicle: water); 100 % of control (dose: 100.0 mg/kg/injection, schedule: Q04DX002 (ip), vehicle: saline); 103 % of control (dose: 100.0 mg/kg/injection, schedule: Q04DX002 (ip), vehicle: water).
With `NC(=O)c1ncn2c(=O)n(CCCl)nnc12`, the T/C under setting [5] was 181 % of control and 236 % of control; the T/C (dose: 6.7 mg/kg/injection, schedule: Q01DX005 (ip), vehicle: saline) was 254 % of control; the T/C under setting [6] is 565 % of control and 566 % of control; the T/C (dose: 12.5 mg/kg/injection, schedule: Q01DX005 (ip), vehicle: saline) is 272 % of control and 275 % of control and 297 % of control; the T/C (dose: 15.0 mg/kg/injection, schedule: Q01DX005 (ip), vehicle: saline) is 566 % of control and 606 % of control; the T/C (dose: 22.0 mg/kg/injection, schedule: Q01DX005 (ip), vehicle: saline) was 393 % of control and 566 % of control. Also, the T/C was 272 % of control and 297 % of control and 306 % of control under setting [7]; 566 % of control and 606 % of control (dose: 33.0 mg/kg/injection, schedule: Q01DX005 (ip), vehicle: saline); 100 % of control under setting [1].
As to `CCc1c2oc(C(=O)c3ccc(Cl)cc3)cc2n2ccccc12`, the T/C was 89 % of control (dose: 60.0 mg/kg/injection, schedule: Q01DX005 (ip), vehicle: Klucel + Tween-80) and 86 % of control (dose: 120.0 mg/kg/injection, schedule: Q01DX005 (ip), vehicle: Klucel + Tween-80).
`FC(F)(F)c1ccc(-c2ccc(OCCN3CCCC3)cc2)cc1`: the T/C runs as follows: (dose: 12.5 mg/kg/injection, schedule: Q01DX009 (ip), vehicle: saline with Tween-80) 86 % of control; (dose: 25.0 mg/kg/injection, schedule: Q01DX009 (ip), vehicle: saline with Tween-80) 86 % of control; under setting [8], 86 % of control; (dose: 50.0 mg/kg/injection, schedule: Q04DX003 (ip), vehicle: saline sonified) 87 % of control.
As for `CC(C)=CC1CC(=O)OC1(C)C` (configuration not stated), the T/C (dose: 12.5 mg/kg/injection, schedule: Q04DX002 (ip), vehicle: saline with Tween-80) was 98 % of control; the T/C (dose: 25.0 mg/kg/injection, schedule: Q04DX002 (ip), vehicle: saline with Tween-80) is 104 % of control; the T/C (dose: 50.0 mg/kg/injection, schedule: Q04DX002 (ip), vehicle: saline with Tween-80) was 100 % of control.
For `NC(=S)C1OC(COC(=O)c2ccccc2)C(OC(=O)c2ccccc2)C1OC(=O)c1ccccc1` (configuration not stated), the T/C by setting is: under setting [8], 96 % of control; under setting [9], 94 % of control; (dose: 200.0 mg/kg/injection, schedule: Q01DX009 (ip), vehicle: saline with Tween-80) 102 % of control.
Regarding `COC(=O)c1cc(-c2ccc(N)cc2)n2c(N)nnc2n1`, the T/C reads like this: under setting [10], 107 % of control; under setting [11], 91 % of control; under setting [12], 98 % of control.
`Cc1ccc(S(=O)(=O)N2CC3CNC(=O)C(C3)C2)cc1` (configuration not stated): the T/C is, setting by setting: under setting [13], 104 % of control; under setting [14], 101 % of control; under setting [15], 107 % of control.
`CCCN1C(=O)Cc2ccccc21`: the T/C was 95 % of control under setting [13], 97 % of control under setting [14] and 100 % of control under setting [15].
For the molecule `COc1ccc2cc1Oc1ccc(cc1)CC1c3cc(c(OC)cc3CCN1C)Oc1c(OC)c(OC)c(O)c3c1C(C2)N(C)CC3` (configuration not stated), the T/C was 99 % of control (dose: 25.0 mg/kg/injection, schedule: Q01DX001 (ip), vehicle: saline with Tween-80); 105 % of control (dose: 50.0 mg/kg/injection, schedule: Q01DX001 (ip), vehicle: saline with Tween-80); 108 % of control and 111 % of control under setting [16].
For the molecule `OC1CCCCC1C1CCCCC1O` (configuration not stated), the T/C runs as follows: under setting [16], 105 % of control; (dose: 200.0 mg/kg/injection, schedule: Q01DX001 (ip), vehicle: saline with Tween-80) 99 % of control; (dose: 400.0 mg/kg/injection, schedule: Q01DX001 (ip), vehicle: saline with Tween-80) 104 % of control.
Take `COc1ccc(-c2cc(C(=O)Nc3cc(C(F)(F)F)cc(C(F)(F)F)c3)c3ccccc3n2)cc1`: the T/C under setting [2] is 91 % of control; the T/C (dose: 100.0 mg/kg/injection, schedule: Q01DX005 (ip), vehicle: DMSO) is 118 % of control; the T/C under setting [3] is 89 % of control; the T/C (dose: 200.0 mg/kg/injection, schedule: Q01DX005 (ip), vehicle: DMSO) was 118 % of control; the T/C under setting [4] is 93 % of control; the T/C (dose: 400.0 mg/kg/injection, schedule: Q01DX005 (ip), vehicle: DMSO) is 96 % of control.
For the molecule `N=C1SCc2ccc3ccccc3c21`, the T/C by setting is: under setting [8], 100 % of control; under setting [9], 124 % of control; (dose: 400.0 mg/kg/injection, schedule: Q01DX009 (ip), vehicle: saline with Tween-80) 97 % of control.
For the molecule `O=C1c2ccccc2C(=O)c2nc(CBr)c(CBr)nc21`, the T/C is 100 % of control (dose: 5.0 mg/kg/injection, schedule: Q01DX005 (ip), vehicle: saline); 100 % of control under setting [6]; 97 % of control (dose: 20.0 mg/kg/injection, schedule: Q01DX005 (ip), vehicle: saline).
In the case of `NCCCNCCCCNC(=O)C(O)NC(=O)CC(O)CCCCN=C(N)N` (configuration not stated), the T/C was 152 % of control under setting [5]; 160 % of control under setting [7]; 150 % of control and 154 % of control (dose: 50.0 mg/kg/injection, schedule: Q01DX005 (ip), vehicle: saline); 156 % of control and 169 % of control (dose: 100.0 mg/kg/injection, schedule: Q01DX005 (ip), vehicle: saline).
`CC(C)(C)OOC(=O)c1ccc(Cl)cc1`: the T/C is 96 % of control (dose: 100.0 mg/kg/injection, schedule: Q04DX002 (ip), vehicle: saline with Tween-80); 95 % of control (dose: 200.0 mg/kg/injection, schedule: Q04DX002 (ip), vehicle: saline with Tween-80); 101 % of control (dose: 400.0 mg/kg/injection, schedule: Q04DX002 (ip), vehicle: saline with Tween-80).
As to `CCOC(=O)C12C3C(=O)N(CC)C(=O)C3ON1OC1C(=O)N(CC)C(=O)C12` (configuration not stated), the T/C is 100 % of control under setting [10], 100 % of control under setting [11] and 95 % of control under setting [12].
